These results are taken from ChEMBL document CHEMBL1201862, “PubChem BioAssay data set” (2004).

SMILES strings stand for the structures. Active and inactive are the calls of the source.

A short description of assay [1]: Trypanosoma cruzi growth suppression in host cells – NIH3T3 host cells, beta-gal luminescence, confirmation (AID 2044).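 Also: intracellular parasites grown in NIH/3T3 mouse fibroblasts as host cells; luminescent beta-galactosidase reporter signal from transgenic T. cruzi replicating inside host cells; inhibitors lower the luminescence signal.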 In kind it is functional, cell-based.
Assay [2] can be described thus: NIH3T3 cell viability loss – ATP luminescence, mouse fibroblasts, counter-screen, dose response (AID 2010).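 Also: cells exposed to compound for about 90 hours before reading.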 The class given is functional, cell-based.
In assay [3] the test system is Escherichia coli. The assay can be described thus: microbe, parasite or virus in culture.
Assay [4] relates to Escherichia coli. The assay can be described thus: microbe, parasite or virus in culture. This is another data set of the same source.
The target of assay [5] is T1, Ubiquitin-conjugating enzyme E2 N (Homo sapiens, UniProt P61088).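 Also: Dose-response confirmation in a TR-FRET assay detecting UBC13-driven polyubiquitin chain formation, inhibition measured.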
T1 sequence (P61088 whole entry): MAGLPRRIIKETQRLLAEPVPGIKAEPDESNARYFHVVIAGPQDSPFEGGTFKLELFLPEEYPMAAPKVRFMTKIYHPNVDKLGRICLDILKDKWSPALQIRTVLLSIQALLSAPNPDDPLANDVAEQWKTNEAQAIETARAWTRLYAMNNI
The class given is functional.

Assay [6] has as its target T2, Microphthalmia-associated transcription factor (Homo sapiens, UniProt O75030).
T2 sequence (O75030 whole entry): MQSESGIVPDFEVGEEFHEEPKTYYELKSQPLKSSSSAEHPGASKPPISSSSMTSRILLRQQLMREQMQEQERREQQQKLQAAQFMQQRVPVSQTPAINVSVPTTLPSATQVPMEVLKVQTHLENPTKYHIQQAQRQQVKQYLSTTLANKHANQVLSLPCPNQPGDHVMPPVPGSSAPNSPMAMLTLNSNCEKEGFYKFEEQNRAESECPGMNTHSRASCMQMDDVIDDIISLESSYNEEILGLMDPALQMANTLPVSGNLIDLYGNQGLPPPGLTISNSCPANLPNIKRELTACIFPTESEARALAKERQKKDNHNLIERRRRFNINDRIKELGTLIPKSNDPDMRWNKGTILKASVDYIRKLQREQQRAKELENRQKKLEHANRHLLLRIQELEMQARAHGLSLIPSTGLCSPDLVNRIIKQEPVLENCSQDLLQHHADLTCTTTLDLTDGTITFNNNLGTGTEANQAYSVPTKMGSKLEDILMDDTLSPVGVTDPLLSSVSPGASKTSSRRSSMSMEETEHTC
Nature of the assay: reducers of TRPM1 reporter luminescence, concentration series – cell-based, SK-MEL-5, cherry-picked, set 3, MITF inhibitor project, dose response (AID 493073).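 Also: SK-MEL-5 melanoma cells with luciferase driven by the MITF target TRPM1 promoter.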 The class given is functional.

The test system of assay [7] is A-375. The assay can be described thus: proliferation inhibition in MITF-low A375 cells – cell-based, cherry-pick samples, set 2, counter-screen for MITF modulator project, dose response (AID 540335). The class given is functional. The following applies: Homo sapiens. (Counterscreens check selectivity or assay interference.)
The nature of assay [8]: HEK-293T cell viability reduction – luminescence, B-cell screen hits, cytotoxicity control for BCR NF-kB inhibitor project, dose response (AID 489021).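 Also: HEK-293T cells carrying an NF-kB luciferase reporter; cells exposed to compound for about 14 hours before viability readout.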 In kind it is functional, cell-based.
A further assay deals with Cytochrome P450 2C19 (Homo sapiens, UniProt P33261). Nature of the assay: Cytochrome panel assay with activity outcomes. Panel member name: p450-cyp2c19 Compounds with AC50 equal or less than 10 uM are considered active. The class given is functional. The following applies: read-out: AC50.
Assay [9] concerns HEK293. The assay can be described thus: HEK293T cell viability loss, resazurin readout – resazurin fluorescence, cytotoxicity control for NF-kB activator project, SAR follow-up (AID 493251). The class given is functional, cell-based. The following applies: Homo sapiens. (In general: Alamar Blue is a resazurin reagent that responds to reducing activity.)
The subject of a further assay is Jurkat. The assay can be described thus: SAR Analysis of small molecule inhibitors of T-cell specific antigen receptor-induced NF-kB activation in a Jurkat cell line using a luminescence assay - Set 2. [Related pubchem assays (depositor defined):AID435003, AID435012, AID465]. In kind it is functional, cell-based. Particulars: Homo sapiens.
The test system of assay [10] is HEK293. Nature of the assay: SAR Analysis of small molecule inhibitors of T-cell specific antigen receptor-induced NF-kB activation in a HEK-293T cell line using a luminescence assay - Set 2. [Related pubchem assays (depositor defined):AID435003, AID435012, AID489026]. In kind it is functional, cell-based. Particulars: Homo sapiens.
The target in assay [11] is T3, RNA-binding protein pos-1 (Caenorhabditis elegans, UniProt G5EF15).
T3 sequence (G5EF15 whole entry): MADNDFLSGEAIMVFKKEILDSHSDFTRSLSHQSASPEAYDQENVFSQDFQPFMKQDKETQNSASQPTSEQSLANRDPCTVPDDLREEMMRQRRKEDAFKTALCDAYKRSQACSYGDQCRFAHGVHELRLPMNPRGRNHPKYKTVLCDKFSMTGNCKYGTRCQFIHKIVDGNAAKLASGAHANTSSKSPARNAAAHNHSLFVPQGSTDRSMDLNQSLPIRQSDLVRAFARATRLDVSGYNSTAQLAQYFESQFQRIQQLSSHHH
The assay can be described thus: disruptors of C. elegans POS-1 RNA interaction – biochemical, fluorescence polarization, dose response (AID 1964).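 Also: purified POS-1 fused to maltose binding protein made in E. coli; potency of compounds blocking POS-1 binding to fluorescent RNA.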 On the technique in general: Polarisation of emitted light reports the rotation of a fluorescent probe.

In assay [12] the target is T4, Zinc finger protein mex-5 (Caenorhabditis elegans, UniProt Q9XUB2).
T4 sequence (Q9XUB2 whole entry): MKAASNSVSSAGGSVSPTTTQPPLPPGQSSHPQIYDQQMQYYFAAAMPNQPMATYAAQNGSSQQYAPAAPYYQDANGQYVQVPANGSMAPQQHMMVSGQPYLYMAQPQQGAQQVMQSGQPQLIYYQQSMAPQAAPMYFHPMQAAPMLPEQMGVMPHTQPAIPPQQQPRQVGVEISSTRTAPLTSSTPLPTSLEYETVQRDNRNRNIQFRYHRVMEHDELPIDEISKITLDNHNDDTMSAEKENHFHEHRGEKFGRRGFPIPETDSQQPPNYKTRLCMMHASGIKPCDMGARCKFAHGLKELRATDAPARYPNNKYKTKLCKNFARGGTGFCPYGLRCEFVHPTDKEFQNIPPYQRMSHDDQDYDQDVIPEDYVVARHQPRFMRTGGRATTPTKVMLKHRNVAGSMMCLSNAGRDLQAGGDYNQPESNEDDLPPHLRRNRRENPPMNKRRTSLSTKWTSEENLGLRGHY
Nature of the assay: potency of MEX-5 RNA-binding blockers – biochemical, C. elegans, fluorescence polarization, dose response (AID 1960).

A short description of assay [13]: viability of PTEN-deleted HCT116 cells – cell-based, HCT116 PTEN knockout, dose response (AID 1047).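 Also: HCT116 colon tumor cells with PTEN knocked out; cells exposed to compound for 60 hours before readout; potency for loss of cell viability measured by luminescence.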 In kind it is functional.
Assay [14] in a line: viability of HCT116 lacking mutant beta-catenin – cell-based, human colon tumor, dose response (AID 1045).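 Also: HCT116 colon tumor cells with beta catenin knocked out; cells exposed to compound for 60 hours.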 The class given is functional.
The target of another assay is X-box-binding protein 1 (Homo sapiens, UniProt P17861). In kind it is functional, Cricetulus griseus.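 Also: confirmatory dose-response counter-screen serving a CHOP assay.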
Assay [15] has as its target T5, Endoribonuclease toxin MazF (Escherichia coli K-12, UniProt P0AE70).
T5 sequence (P0AE70 whole entry): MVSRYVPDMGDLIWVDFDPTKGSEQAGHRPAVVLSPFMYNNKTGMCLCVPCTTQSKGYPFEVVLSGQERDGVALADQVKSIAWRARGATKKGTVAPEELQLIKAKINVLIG
Nature of the assay: activation of MazEF endoribonuclease cleavage – biochemical, fluorescence, single-stranded RNA substrate, uHTS hits, dose response (AID 588481). In kind it is functional.

For assay [16], the system named is A-375. The assay can be described thus: MITF: Counter assay: A375 proliferation Measured in Cell-Based System Using Plate Reader - 2084-03_Inhibitor_Dose_DryPowder_Activity. [Related pubchem assays (depositor defined):AID488944]. In kind it is functional. The following applies: Homo sapiens.
The target of assay [17] is T5, Endoribonuclease toxin MazF. Nature of the assay: substrate-only fluorescence increase artefacts – biochemical, single-stranded RNase substrate, counter-screen for MazEF activator project, dose response (AID 588502). In kind it is functional.

Sequence of Cytochrome P450 2C19 (P33261 whole entry): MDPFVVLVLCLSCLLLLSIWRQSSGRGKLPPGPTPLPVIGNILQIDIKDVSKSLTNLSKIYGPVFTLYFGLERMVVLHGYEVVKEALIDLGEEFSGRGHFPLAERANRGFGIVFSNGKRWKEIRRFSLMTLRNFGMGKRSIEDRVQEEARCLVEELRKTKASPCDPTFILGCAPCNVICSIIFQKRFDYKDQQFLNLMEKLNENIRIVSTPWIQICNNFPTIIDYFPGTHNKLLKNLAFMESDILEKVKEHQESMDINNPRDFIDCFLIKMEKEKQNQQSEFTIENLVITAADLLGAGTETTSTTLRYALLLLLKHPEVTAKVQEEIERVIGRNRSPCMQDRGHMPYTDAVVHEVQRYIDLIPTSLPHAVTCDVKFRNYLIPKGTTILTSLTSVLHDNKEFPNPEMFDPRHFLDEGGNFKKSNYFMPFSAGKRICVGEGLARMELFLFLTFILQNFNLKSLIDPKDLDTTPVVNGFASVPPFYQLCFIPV
Sequence of X-box-binding protein 1 (P17861 whole entry): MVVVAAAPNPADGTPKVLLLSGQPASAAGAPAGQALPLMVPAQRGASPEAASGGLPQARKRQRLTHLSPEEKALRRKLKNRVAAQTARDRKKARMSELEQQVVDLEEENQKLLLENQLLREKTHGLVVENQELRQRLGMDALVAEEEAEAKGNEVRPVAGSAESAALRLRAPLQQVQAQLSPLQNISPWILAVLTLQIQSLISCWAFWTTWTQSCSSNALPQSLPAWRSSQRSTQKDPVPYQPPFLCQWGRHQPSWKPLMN

What is called EC50 is the concentration needed to bring the measured effect to its halfway point. As a reminder, the AC50 is the midpoint of the concentration-response curve, whichever way the signal moves. `N#C/C(=C\c1ccc(N2CCCCC2)c([N+](=O)[O-])c1)c1nn(-c2ccccc2)c(N)c1C#N`: the results for the 50% effective concentration (EC50) in [1] and in [2] were 1.81 µM (active) and > 30 µM (not active), respectively. Moreover, the AC50 with Escherichia coli [3] was 26.2 µM (active); with Escherichia coli [4], > 380 µM (inactive).

For orientation: IC50 means the concentration at which inhibition is half-maximal. As for `Cc1cccc(/C=C2/Sc3ccc(C(=O)NCCN4CCCC4)cc3NC2=O)c1`, in assay [5], the IC50 was > 20 µM (inactive). In addition, the concentration at half-maximal activity (AC50) is 18.4 µM (active) in assay [6] and 21.1 µM (active) with A-375 [7].

On to `CN(C)C(=O)CCc1nc(-c2ccc(C(C)(C)C)cc2)no1`, for which the IC50 was > 80 µM (inactive) in assay [8], > 80 µM (inactive) in the assay on HEK293 [9], > 79 µM (inactive) in the assay with Jurkat and 48.5 µM (inactive) with HEK293 [10]. Also, the half-maximal activity concentration (AC50) on Cytochrome P450 2C19 is 22.4 µM (inconclusive).

On to `Br.N=c1n(CC(=O)c2ccc([N+](=O)[O-])cc2)c2ccccc2n1Cc1ccc(Cl)cc1`, for which the EC50 in assay [11] was 125 µM (active); in [12], > 300 µM (not active); in assay [13] it was 5.38 µM (active); in assay [14] it was 5.28 µM (active); in assay [15], > 99 µM (inactive); in assay [17] it was 1.93 µM (active). Moreover, the “Absolute IC50 (XBP1)” value at X-box-binding protein 1 came to 10 µM. Also, in the assay with A-375 [16], the AC50 is 22.2 µM (active).
